Like-named read-outs stand apart in the source and are kept apart here.

This experiment addresses T1, full-length SARM1 (FL-SARM1) (Homo sapiens, UniProt Q6SZW1).
T1 sequence (Q6SZW1 28-724): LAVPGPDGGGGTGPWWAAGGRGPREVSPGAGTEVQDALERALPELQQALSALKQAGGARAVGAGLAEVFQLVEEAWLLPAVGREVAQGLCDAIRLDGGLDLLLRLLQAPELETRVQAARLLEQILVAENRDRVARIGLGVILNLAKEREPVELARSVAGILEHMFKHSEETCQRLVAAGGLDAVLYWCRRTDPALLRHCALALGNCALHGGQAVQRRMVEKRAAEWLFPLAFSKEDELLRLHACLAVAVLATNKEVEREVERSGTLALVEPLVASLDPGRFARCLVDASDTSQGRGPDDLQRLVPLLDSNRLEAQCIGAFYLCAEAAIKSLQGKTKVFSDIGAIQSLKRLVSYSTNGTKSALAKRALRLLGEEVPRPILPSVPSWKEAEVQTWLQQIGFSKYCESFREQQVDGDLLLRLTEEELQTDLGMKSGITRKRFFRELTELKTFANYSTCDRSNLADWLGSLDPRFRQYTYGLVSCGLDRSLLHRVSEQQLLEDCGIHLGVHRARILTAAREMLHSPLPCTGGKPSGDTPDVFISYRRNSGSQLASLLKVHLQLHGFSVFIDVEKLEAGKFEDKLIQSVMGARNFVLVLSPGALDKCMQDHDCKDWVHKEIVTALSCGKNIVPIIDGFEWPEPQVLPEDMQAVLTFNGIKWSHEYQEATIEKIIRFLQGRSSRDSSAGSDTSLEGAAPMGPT
Kind of experiment: FL-SARM1 cellular lysate assay (NAD/NADH-Glo detection of remaining NAD+, NMN-activated).

Setting [1] is: Activity (μM) (IC50), 11 point curve.
Setting [2] is: read-out: Activity (IC50 class), 11 point curve.
[3] abbreviates: Activity (IC50 class), 11 point curve.

On to `Cc1ccc(NC(=O)N2CCCC(C)CC2)cc1-c1ncc(F)cn1` (racemic) [Example 213, N-(3-(5-fluoropyrimidin-2-yl)-4-methylphenyl)-4-methylazepane-1-carboxamide], for which the IC50 under setting [1] was 0.2 µM and the IC50 under setting [2] lay within 0.0001 to 1 µM.
`Cc1ccc(-c2cc(NC(=O)N3[C@@H]4C[C@@H](C)C[C@H]3C4)ccc2C)nn1` [Example 242, cis-3-methyl-N-[4-methyl-3-(6-methylpyridazin-3-yl)phenyl]-6-azabicyclo[3.1.1]heptane-6-carboxamide]: the IC50 by setting is: under setting [1], 0.07 µM; under setting [2], 0.0001 to 1 µM.
For the molecule `Cc1ccc(NC(=O)CC2CCC2)cc1-c1cccnn1` [Example 167, 2-cyclobutyl-N-(4-methyl-3-pyridazin-3-ylphenyl)acetamide], the IC50 reads like this: under setting [3], more than 10 µM; under setting [1], 11 µM.
The matching figures for `Cc1ccc(NC(=O)C2CC3CC3CN2c2ccccn2)cc1-c1ncc(F)cn1` (mixture of isomers) [Example 260, N-(3-(5-fluoropyrimidin-2-yl)-4-methylphenyl)-3-(pyridin-2-yl)-3-azabicyclo[4.1.0]heptane-4-carboxamide]: 1 to 10 µM and 1.3 µM.
Take `Cc1ccc(NC(=O)N2C3CCCC2CC3)cc1-c1ccc(F)cn1` [Example 14, N-(3-(5-fluoropyridin-2-yl)-4-methylphenyl)-8-azabicyclo[3.2.1]octane-8-carboxamide]: it took 0.1 µM to reach half-maximal inhibition under setting [1] (IC50) and the IC50 under setting [2] fell in the range of 0.0001 to 1 µM.
As to `C[C@@H]1CC2C[C@H](C1)N2C(=O)Nc1ccc(Cl)c(-c2cccnn2)c1` [Example 64, cis-N-(4-chloro-3-pyridazin-3-ylphenyl)-3-methyl-6-azabicyclo[3.1.1]heptane-6-carboxamide], the IC50 runs as follows: under setting [1], 0.1 µM; under setting [2], 0.0001 to 1 µM.
As to `Cc1ccc(NC(=O)N2CCCC2c2nccn2C)cc1-c1ccccn1` (racemic) [Example 93, 2-(1-methylimidazol-2-yl)-N-(4-methyl-3-pyridin-2-ylphenyl)pyrrolidine-1-carboxamide], the IC50 under setting [3] is more than 10 µM and the IC50 under setting [1] was determined as 21 µM.
Turning to `COc1cncc(-c2cc(NC(=O)N3C4C[C@@H](C)C[C@H]3C4)ccc2C)n1` [Example 218, cis-N-(3-(6-methoxypyrazin-2-yl)-4-methylphenyl)-3-methyl-6-azabicyclo[3.1.1]heptane-6-carboxamide], the IC50 by setting is: under setting [1], 0.03 µM; under setting [2], 0.0001 to 1 µM.
As to `Cc1ccc(NC(=O)N2CC(C3CC3)C2)cc1-c1ccccn1` [Example 25, 3-cyclopropyl-N-(4-methyl-3-(pyridin-2-yl)phenyl)azetidine-1-carboxamide], the IC50 is 1 to 10 µM under setting [3] and 6.7 µM under setting [1].
As to `O=C(Nc1ccc(-c2ccccc2)c(-c2ccccn2)c1)[C@@H]1CC1(F)F` [Example 148, (1S)-2,2-difluoro-N-(4-phenyl-3-pyridin-2-ylphenyl)cyclopropane-1-carboxamide], the IC50 was more than 10 µM under setting [3] and 38 µM under setting [1].
As for `Cc1ccc(NC(=O)[C@@H]2CC2(F)F)cc1-c1ccccn1` [Example 142, (1S)-2,2-difluoro-N-(4-methyl-3-pyridin-2-ylphenyl)cyclopropane-1-carboxamide], the IC50 was 1 to 10 µM under setting [3] and 2.6 µM under setting [1].
As to `Cc1ccc(NC(=O)C2CCCC2C)cc1-c1ccccn1` (stereo not shown) [Example 114, 2-methyl-N-(4-methyl-3-pyridin-2-ylphenyl)cyclopentane-1-carboxamide], the IC50 runs as follows: under setting [1], 0.7 µM; under setting [2], 0.0001 to 1 µM.
On to `O=C(Nc1ccc(C(F)(F)F)c(-c2ncc(F)cn2)c1)N1C2CCCCC1C2` [Example 311, N-(3-(5-fluoropyrimidin-2-yl)-4-(trifluoromethyl)phenyl)-7-azabicyclo[4.1.1]octane-7-carboxamide], for which the IC50 reads like this: under setting [1], 0.1 µM; under setting [2], 0.0001 to 1 µM.
Take `COC(C)[C@@]12CC(C[C@@H](C)C1)N2C(=O)Nc1ccc(C)c(-c2ncc(F)cn2)c1` (single isomer, unassigned) [Example 192, cis-N-(3-(5-fluoropyrimidin-2-yl)-4-methylphenyl)-1-(−1-methoxyethyl)-3-methyl-6-azabicyclo[3.1.1]heptane-6-carboxamide]: the IC50 reads like this: under setting [3], 1 to 10 µM; under setting [1], 1 µM.
Taken in the same sequence, the figures for `CC1(c2ccc(NC(=O)[C@@H]3CC3(F)F)cc2-c2ccccn2)CC1` [Example 133, (1S)-2,2-difluoro-N-[4-(1-methylcyclopropyl)-3-pyridin-2-ylphenyl]cyclopropane-1-carboxamide] were more than 10 µM and 24 µM.
`C[C@@H]1C[C@@H]2C[C@H](C1)N2C(=O)Nc1cc(-c2nccnn2)c(Cl)cc1F` [Example 323]: the IC50 is 0.2 µM under setting [1] and 0.0001 to 1 µM under setting [2].
Regarding `Cc1ccc(NC(=O)C(C)(O)C2CCC2)cc1-c1ccccn1` (racemic) [Example 118, 2-cyclobutyl-2-hydroxy-N-(4-methyl-3-pyridin-2-ylphenyl)propanamide], the IC50 was 1 to 10 µM under setting [3] and 6.1 µM under setting [1].
Turning to `Cc1ccc(NC(=O)N2C3CCC2[C@@H](C)C3)cc1-c1ncc(F)cn1` (single isomer, unassigned) [Example 196, cis-N-(3-(5-fluoropyrimidin-2-yl)-4-methylphenyl)-2-methyl-7-azabicyclo[2.2.1]heptane-7-carboxamide], the IC50 runs as follows: under setting [1], 0.8 µM; under setting [2], 0.0001 to 1 µM.
The matching figures for `Cc1ccc(NC(=O)N2C3CCC2c2ncccc23)cc1-c1ccccn1` (stereo not shown) [Example 100, N-(4-methyl-3-pyridin-2-ylphenyl)-3,11-diazatricyclo[6.2.1.02,7]undeca-2,4,6-triene-11-carboxamide]: 0.6 µM and 0.0001 to 1 µM.
For `Cc1ccc(NC(=O)N2[C@@H]3C[C@@H](C)C[C@H]2C3)cc1-c1ccccn1` [Example 11, cis-3-Methyl-N-(4-methyl-3-(pyridin-2-yl)phenyl)-6-azabicyclo[3.1.1]heptane-6-carboxamide], the IC50 reads like this: under setting [1], 0.01 µM; under setting [2], 0.0001 to 1 µM.
In the case of `Cc1ccc(NC(=O)C2CCC(C)CCN2c2ccccn2)cc1-c1ncccn1` (mixture of isomers) [Example 259, 5-methyl-N-(4-methyl-3-(pyrimidin-2-yl)phenyl)-1-(pyridin-2-yl)azepane-2-carboxamide], the IC50 is 1 to 10 µM under setting [3] and 5.8 µM under setting [1].
As for `Cc1ccc(NC(=O)C2C3CC(C3)N2c2ccccn2)cc1-c1ncc(F)cn1` (stereo not shown) [Example 271, N-(3-(5-fluoropyrimidin-2-yl)-4-methylphenyl)-2-(pyridin-2-yl)-2-azabicyclo[2.1.1]hexane-3-carboxamide], the IC50 is more than 10 µM under setting [3] and 17 µM under setting [1].
For `Cc1ccc(NC(=O)[C@H]2[C@H](C)OCCN2c2ccccn2)cc1-c1ncc(F)cn1` [Example 270, (2S,3R)-N-(3-(5-fluoropyrimidin-2-yl)-4-methylphenyl)-2-methyl-4-(pyridin-2-yl)morpholine-3-carboxamide], the IC50 is, setting by setting: under setting [3], 1 to 10 µM; under setting [1], 9.5 µM.
Take `Cc1ccc(NC(=O)N2CCCC2c2ccn(C)n2)cc1-c1ccccn1` (racemic) [Example 88, 2-(1-methylpyrazol-3-yl)-N-(4-methyl-3-pyridin-2-ylphenyl)pyrrolidine-1-carboxamide]: the IC50 is, setting by setting: under setting [3], more than 10 µM; under setting [1], 11 µM.
Take `O=C(Nc1ccc(C(F)(F)F)c(-c2ccccn2)c1)[C@@H]1CC1(F)F` [Example 150, (1S)-2,2-difluoro-N-[3-pyridin-2-yl-4-(trifluoromethyl)phenyl] cyclopropane-1-carboxamide]: the IC50 is, setting by setting: under setting [3], 1 to 10 µM; under setting [1], 3.7 µM.
`Cc1ccc(NC(=O)N2CCC[C@H]2c2ccccc2)cc1-c1ccccn1` [Example 96, (2S)-N-(4-methyl-3-pyridin-2-ylphenyl)-2-phenylpyrrolidine-1-carboxamide]: the IC50 is, setting by setting: under setting [1], 0.7 µM; under setting [2], 0.0001 to 1 µM.
Take `Cc1cc(F)c(NC(=O)N2C3CCCC2C3)cc1-c1cc(Cl)cnn1` [Example 247, N-[5-(5-chloropyridazin-3-yl)-2-fluoro-4-methylphenyl]-6-azabicyclo[3.1.1]heptane-6-carboxamide]: the IC50 was 0.4 µM under setting [1] and 0.0001 to 1 µM under setting [2].
As to `Cc1ccc(NC(=O)[C@H]2C[C@H]3C[C@H]3N2)cc1-c1ncc(F)cn1` [Example 170, (1R,3R,5R)—N-(3-(5-fluoropyrimidin-2-yl)-4-methylphenyl)-2-azabicyclo[3.1.0]hexane-3-carboxamide], the IC50 runs as follows: under setting [3], 1 to 10 µM; under setting [1], 2.7 µM.
With `Cc1ccc(NC(=O)N2C3C[C@@H](C)C[C@H]2C3)cc1-c1cccnn1` [Example 62, cis-3-methyl-N-(4-methyl-3-pyridazin-3-yl-phenyl)-6-azabicyclo[3.1.1]heptane-6-carboxamide], the IC50 was 0.02 µM under setting [1] and 0.0001 to 1 µM under setting [2].

Usually IC50 stands for the concentration that inhibits the measured activity by half.

(Values after patent publication US20250171462A1 (NICO Therapeutics, Inc., priority 2022, published 2025).)
